Assay results: PMC6523162 (Metabolites, 2019)
Values joined by “and” are separate entries in the source; they are usually repeats but may differ in a detail not shown here. Identical values can stand only once.

Experiments:
[1] = PAMPA gut passive permeability; assay type: in vitro ADME; conditions: for -log Pe: PAMPA gut, 4 h
Protocol: (§1) Parallel Artificial Membrane Permeability Assay was performed to analyze both blood–brain barrier (BBB) and gut passive permeability. All materials for PAMPA were purchased from Pion, Inc (Billerica, MA, USA). Both the gut and BBB assays were performed according to the manufacturer’s instructions. Briefly, test compounds and standards were prepared at 10 mM concentrations in DMSO. For the gut assay, Prisma HT buffer was adjusted to pHs 5, 6.2, and 7.4 by adding 0.5 M NaOH. In the deepwell plate provided by Pion, 1 mL of each pH-adjusted buffer was added to separate wells. For each pH, 5 µL of the sample was added to the 1 mL of buffer then mixed thoroughly with a pipette, diluting the sample to a final concentration of 50 µM. Next, 200 µl of the diluted sample was added to the donor (bottom) plate from the Pion sandwich assay, 5 µL of GIT lipid matrix was added to the membrane on the bottom of the acceptor plate, and 200 µL of acceptor sink buffer was added in each well of the acceptor plate. The sandwich was assembled, and the plate incubated at room temperature for 4 h undisturbed. In BBB assays, compounds (10 mM) were diluted to final concentrations of 50 µM in Prisma HT Buffer (pH = 7.4). The PAMPA sandwich was created with the donor (bottom), BBB artificial membrane, and brain sink buffer as the acceptor (top). The assay was performed for 1 h at room temperature with shaking (60 µm) using the manufacturer-supplied GIT Box. After incubation, the UV profiles of the donor and acceptor plates were read on the SpectraMax plate reader connected to the PAMPA software. PAMPA software calculated the –log Pe values for each compound and standard using the UV profiles of the donor and acceptor plates.

[2] = tested on: nitric oxide production in LPS-stimulated BV-2 murine microglia; test: Nitric oxide quantification (Griess assay) in LPS-stimulated BV-2; assay type: cell-based; conditions: for Mean Diff., LPS (1 μg/mL) vs. compound, NOS production: Tukey's multiple comparisons test; for nitric oxide concentration: 10 μM compound + LPS 1 μg/mL
Protocol: (§2) As previously published, BV-2 cells were seeded at a density of 100,000 cells/mL in 24-well plates. […] Media were collected, aliquoted for nitric oxide and cytokine analysis.
Nitric oxide was detected in BV-2 culture media following the stimulation of LPS for 24 h from the previously described experiment by way of the Griess Assay (Promega, Madison WI), according to the manufacturer’s protocol.

[3] = tested on: TNF-α release from LPS-stimulated BV-2 murine microglia; test: TNF-α ELISA in LPS-stimulated BV-2 media; assay type: cell-based; conditions: for Mean Diff., LPS (1 μg/mL) vs. compound, TNF-α: Tukey's multiple comparisons test; for effect on TNF-α production (in words): 20 μM and 10 μM, compared to LPS-induced treatment; for reduction of TNF-α compared to LPS: LPS 1 μg/mL
Protocol: as §2
(§3) IL-6 and TNF-α were measured from BV-2 media using Enzyme Linked Immunosorbent Assay (ELISA) provided by Biolegend (San Diego, CA, USA).

[4] = tested on: IL-6 release from LPS-stimulated BV-2 murine microglia; test: IL-6 ELISA in LPS-stimulated BV-2 media; assay type: cell-based; conditions: for Mean Diff., LPS (1 μg/mL) vs. compound, IL-6: Tukey's multiple comparisons test; for IL-6 concentration: 10 μM compound + LPS 1 μg/mL; for reduction of IL-6 production compared to LPS: LPS 1 μg/mL
Protocol: as §2, §3

[5] = tested on: nitric oxide production in LPS-stimulated BV-2 murine microglia; test: Nitric oxide quantification (Griess assay) in LPS-stimulated BV-2; assay type: cell-based; conditions: 1 h pre-treatment, LPS 1 μg/mL 23 h
[6] = PAMPA BBB passive permeability; assay type: in vitro ADME; conditions: for -log Pe: PAMPA BBB, pH 7.4, 50 µM, 1 h; for PAMPA BBB permeability (in words): pH 7.4
Protocol: as §1

Compound | PAMPA gut permeability (in words) ([1]; pH 5.0, 6.2 and 7.4) | Mean Diff., LPS (1 μg/mL) vs. compound, NOS production ([2]; 10 μM) | Mean Diff., LPS (1 μg/mL) vs. compound, NOS production ([2]; 20 μM) | Mean Diff., LPS (1 μg/mL) vs. compound, TNF-α ([3]; 10 μM) | Mean Diff., LPS (1 μg/mL) vs. compound, TNF-α ([3]; 20 μM) | Mean Diff., LPS (1 μg/mL) vs. compound, IL-6 ([4]; 10 μM) | Mean Diff., LPS (1 μg/mL) vs. compound, IL-6 ([4]; 20 μM) | reduction of nitric oxide compared to LPS alone ([5]; 20 μM) | -log Pe [6] | PAMPA BBB permeability (in words) [6] | nitric oxide concentration [2] | TNF-α concentration ([3]; 10 μM compound + LPS 1 μg/mL) | reduction of TNF-α compared to LPS ([3]; 10 μM) | IL-6 concentration [4] | reduction of IL-6 production compared to LPS ([4]; 10 μM) | reduction of nitric oxide compared to LPS alone ([5]; 10 μM) | also measured
O=c1c(-c2ccc(O)cc2)coc2cc(O)ccc12 [DAI, daidzein] | most permeable at pHs 5 and 6.2 | 4.129 | 9.223 | 57.91 | 70.55 | 17.26 | 20.68 | 24% | – | – | – | – | – | – | – | – | effect on TNF-α production (in words) [3]: similar, albeit less potent, protective abilities
O=C1OC[C@H](Cc2cccc(O)c2)[C@H]1Cc1cccc(O)c1 [EL, enterolactone] | – | 15.34 | – | 152.8 | – | 175.8 | – | – | 3.97 ± 0.14 | high permeability | 35.67 µM | 365.6 pg/mL | 29.47% | 489.9 pg/mL | ~26.41% | ~30.07% | -log Pe ([1]; pH 5, 50 µM): 4.27 ± 0.05; -log Pe ([1]; pH 6.2, 50 µM): 4.37 ± 0.02
Cc1cc(=O)n(-c2ccccc2)n1C [Antipyrine, reference compound] | – | – | – | – | – | – | – | – | – | – | – | – | – | – | – | – | PAMPA gut permeability (in words) ([1]; pH 5): medium
OC[C@H](Cc1cccc(O)c1)[C@H](CO)Cc1cccc(O)c1 [ED, enterodiol] | lowest permeability of all test compounds | 4.354 | – | 2.638 | – | -24.9 | – | – | – | low permeability | 46.65 µM | 515.8 pg/mL | 0.5% | 690.6 pg/mL | approximately 3.74% | ~8.54% | –
Oc1ccc([C@H]2COc3cc(O)ccc3C2)cc1 [EQ, equol] | – | 6.216 | 8.47 | 57.03 | 72.78 | 10.39 | 19.48 | 22% | 3.52 ± 0.20 | high permeability | – | – | – | – | – | – | -log Pe ([1]; pH 5, 50 µM): 4.35 ± 0.11; -log Pe ([1]; pH 6.2, 50 µM): 4.20 ± 0.02; effect on TNF-α production (in words) [3]: similar, albeit less potent, protective abilities
CC(C(=O)O)c1cccc(C(=O)c2ccccc2)c1 (stereo not drawn) [Ketoprofen, ketoprofen, reference compound] | variable permeability with pH change | – | – | – | – | – | – | – | – | – | – | – | – | – | – | – | –
CNC(=C[N+](=O)[O-])NCCSCc1ccc(CN(C)C)o1 [Ranitidine, ranitidine, reference compound] | low | – | – | – | – | – | – | – | – | – | – | – | – | – | – | – | –
COc1cc(C[C@@H](CO)[C@H](CO)Cc2ccc(O)c(OC)c2)ccc1O [SECO, secoisolariciresinol] | moderate permeability | 4.653 | – | 20.62 | – | -7.108 | – | – | – | low permeability | 46.35 µM | 497.8 pg/mL | 3.97% | 672.8 pg/mL | 1.05% | approximately 9.13% | –
O=c1c(-c2ccc(O)cc2)coc2cc(O)cc(O)c12 [GEN, genistein] | – | 14.41 | 26.17 | 113.8 | 199.8 | 35.15 | 83.38 | 68% | 4.26 ± 0.16 | Intermediate BBB permeability | – | – | 16.6% | – | 34.0% | 38% | reduction of TNF-α compared to LPS ([3]; 20 μM): 29.1%; reduction of IL-6 production compared to LPS ([4]; 20 μM): 80.4%
lipopolysaccharide [LPS, reference compound] | – | – | – | – | – | – | – | – | – | – | – | – | – | – | – | – | nitric oxide species concentration ([2]; LPS 1 μg/mL alone): 41.5 ± 5.6 µM and 51.01 µM; TNF-α concentration ([3]; LPS 1 μg/mL alone): 687.7 ± 8.0 pg/mL and 518.4 pg/mL
